Assay results from patent US20240425523A1, “Compounds for the Degradation of EGFR Kinase” (Beigene Switzerland GMBH, priority 2023, published 2024).

Legend:
Type in all cases: cell-based
[1] = molecular target: p-EGFR Del19/C797S (H1975-clone #23 cells) (Homo sapiens, UniProt P00533); assay: Cell p-EGFR inhibition assay, HTRF, H1975-clone#23 (DEL19/C797S) cells; conditions: 16 h treatment; for Imax (%): maximum percentage of pEGFR inhibition; for IC50: pEGFR inhibition
Outline: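 Phospho-EGFR read by overnight HTRF on lysates, normalized to DMSO-treated high control; IC50, Hill slope and Imax fitted. Compounds were applied for 16 h (10 uM top, 5-fold steps, 8 doses) to an H1975 single clone carrying only exogenous Del19/C797S EGFR after sgRNA knockout of endogenous copies.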

[2] = molecular target: T1, EGFR-L858R/C797S (H1975-clone #8 cells) (Homo sapiens, UniProt P00533, C797S/L858R); assay: Cell degradation of EGFR, HTRF assay, H1975-clone#8 (L858R/C797S) cells; conditions: 16 h treatment; for DC50: EGFR degradation; for Dmax: maximum percentage of degradation
T1 construct: expressed in transfected cells; host or cells: H1975 (endogenous EGFR knocked out, clone #8)

[3] = molecular target: T2, EGFR L858R (BaF3-L858R cells) (Homo sapiens, UniProt P00533, L858R); assay: Cell degradation of EGFR, HTRF assay, BaF3-L858R cells; conditions: 16 h treatment; for DC50: EGFR degradation; for Dmax: maximum percentage of degradation
T2 construct: host or cells: BaF3
Outline: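 EGFR L858R levels measured by HTRF antibody pair in lysed BaF3-L858R cells after 16 h compound exposure (8-point 5-fold series from 10 uM final, 37° C). Degradation is relative to DMSO-only cells; DC50 fitted with Hill equation, Dmax taken as the largest percent loss.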

[4] = molecular target: T3, p-EGFR L858R (BaF3-L858R cells) (Homo sapiens, UniProt P00533, L858R); assay: Cell p-EGFR inhibition assay, HTRF, BaF3-L858R cells; conditions: 16 h treatment; for Imax (%): maximum percentage of pEGFR inhibition; for IC50: pEGFR inhibition
T3 construct: host or cells: BaF3
Outline: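 BaF3-L858R cells treated 16 h at 37 °C, 5% CO2 with compound from 10 uM top, 5-fold dilutions, 8 doses, in 0.1% DMSO medium. Lysates read overnight by HTRF p-EGFR antibodies; IC50 fitted to four-parameter curve against DMSO high control.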

SMILES	Imax (%) [1] [%]	IC50 [1] [nM]	DC50 [2] [nM]	Dmax [2] [%]	DC50 [3] [nM]	Dmax [3] [%]	Imax (%) [4] [%]	IC50 [4] [nM]
CCc1nn(C)c2c1-c1cc(cc(C)n1)C(=O)/N=C1\Nc3ccc(N4CCN(C5CCN(c6cc(F)c([C@H]7CCC(=O)NC7=O)c(F)c6)CC5)[C@@H](COC)C4)cc3N1C[C@@H]1CC[C@H](CO2)C1 [Example 175, (R)-3-(4-(4-((R)-4-((7^1R,7^3S,E)-1^3-ethyl-1^1,2^6-dimethyl-3-oxo-5^2,5^3-dihydro-1^1H,5^1H-9-oxa-4-aza-5(2,1)-benzo[d]imidazola-2(2,4)-pyridina-1(4,5)-pyrazola-7(1,3)-cyclopentanacyclononaphane-5^6-yl)-2-(methoxymethyl)piperazin-1-yl)piperidin-1-yl)-2,6-difluorophenyl)piperidine-2,6-dione]	100.72	1.28	7.25	83.9	4.07	88.7	98.51	2.83
COC[C@H]1CN(c2ccc3c(c2)N2C[C@@H]4CC[C@H](COc5c(c(C)nn5C)-c5cc(cc(Cl)n5)C(=O)/N=C/2N3)C4)CCN1C1CCN(c2cc(F)c([C@H]3CCC(=O)NC3=O)c(F)c2)CC1 [Example 176, (R)-3-(4-(4-((R)-4-((7^1R,7^3S,E)-2^6-chloro-1^1,1^3-dimethyl-3-oxo-5^2,5^3-dihydro-1^1H,5^1H-9-oxa-4-aza-5(2,1)-benzo[d]imidazola-2(2,4)-pyridina-1(4,5)-pyrazola-7(1,3)-cyclopentanacyclononaphane-5^6-yl)-2-(methoxymethyl)piperazin-1-yl)piperidin-1-yl)-2,6-difluorophenyl)piperidine-2,6-dione]	101.78	3.6	10.7	85.4	8.27	89	94.16	15.2
Cc1nn(C)c2c1-c1cc(cc(Cl)n1)C(=O)/N=C1\Nc3ccc(N4CCN(C5CCN(c6cc(F)c([C@H]7CCC(=O)NC7=O)c(F)c6)CC5)CC4)cc3N1C[C@@H]1CC[C@H](CO2)C1 [Example 179, (R)-3-(4-(4-(4-((7^1R,7^3S,E)-2^6-chloro-1^1,1^3-dimethyl-3-oxo-5^2,5^3-dihydro-1^1H,5^1H-9-oxa-4-aza-5(2,1)-benzo[d]imidazola-2(2,4)-pyridina-1(4,5)-pyrazola-7(1,3)-cyclopentanacyclononaphane-5^6-yl)piperazin-1-yl)piperidin-1-yl)-2,6-difluorophenyl)piperidine-2,6-dione]	100.7	2.85	10.6	89.6	5.38	90.8	99.14	14.4
Cc1cc2cc(n1)-c1c(C)nn(C)c1OC[C@H]1CC[C@H](C1)CN1/C(=N/C2=O)Nc2ccc(N3CCN(CC4CCN(c5cc(F)c([C@H]6CCC(=O)NC6=O)c(F)c5)CC4)CC3)cc21 [Example 182, (R)-3-(2,6-difluoro-4-(4-((4-((7^1R,7^3S,E)-1^1,1^3,2^6-trimethyl-3-oxo-5^2,5^3-dihydro-1^1H,5^1H-9-oxa-4-aza-5(2,1)-benzo[d]imidazola-2(2,4)-pyridina-1(4,5)-pyrazola-7(1,3)-cyclopentanacyclononaphane-5^6-yl)piperazin-1-yl)methyl)piperidin-1-yl)phenyl)piperidine-2,6-dione]	99.73	2.38	1.39	79.8	21.8	89.2	100.38	2.21
Cc1cc2cc(n1)-c1c(C)nn(C)c1OC[C@H]1CC[C@H](C1)CN1/C(=N/C2=O)Nc2ccc(N3CCN(CCC4CCN(c5cc(F)c([C@H]6CCC(=O)NC6=O)c(F)c5)CC4)CC3)cc21 [Example 183, (R)-3-(2,6-difluoro-4-(4-(2-(4-((7^1R,7^3S,E)-1^1,1^3,2^6-trimethyl-3-oxo-5^2,5^3-dihydro-1^1H,5^1H-9-oxa-4-aza-5(2,1)-benzo[d]imidazola-2(2,4)-pyridina-1(4,5)-pyrazola-7(1,3)-cyclopentanacyclononaphane-5^6-yl)piperazin-1-yl)ethyl)piperidin-1-yl)phenyl)piperidine-2,6-dione]	99.41	7.32	5.83	91.2	5.3	91.6	98.21	5.32
Cc1cc2cc(n1)-c1c(C)nn(C)c1OC[C@H]1CC[C@H](C1)CN1/C(=N/C2=O)Nc2ccc(N3CCN(C[C@@H]4CCN(c5cc(F)c([C@H]6CCC(=O)NC6=O)c(F)c5)C4)CC3)cc21 [Example 184, (R)-3-(2,6-difluoro-4-((S)-3-((4-((7^1R,7^3S,E)-1^1,1^3,2^6-trimethyl-3-oxo-5^2,5^3-dihydro-1^1H,5^1H-9-oxa-4-aza-5(2,1)-benzo[d]imidazola-2(2,4)-pyridina-1(4,5)-pyrazola-7(1,3)-cyclopentanacyclononaphane-5^6-yl)piperazin-1-yl)methyl)pyrrolidin-1-yl)phenyl)piperidine-2,6-dione]	100.52	2.48	3.16	89.3	4.99	90.1	91.67	1.25
CC[C@@H]1CN(c2ccc3c(c2)N2C[C@@H]4CC[C@H](COc5c(c(C)nn5C)-c5cc(cc(C)n5)C(=O)/N=C/2N3)C4)CCN1C1CCN(c2cc(F)c([C@H]3CCC(=O)NC3=O)c(F)c2)CC1 [Example 188, (R)-3-(4-(4-((R)-2-ethyl-4-((7^1R,7^3S,E)-1^1,1^3,2^6-trimethyl-3-oxo-5^2,5^3-dihydro-1^1H,5^1H-9-oxa-4-aza-5(2,1)-benzo[d]imidazola-2(2,4)-pyridina-1(4,5)-pyrazola-7(1,3)-cyclopentanacyclononaphane-5^6-yl)piperazin-1-yl)piperidin-1-yl)-2,6-difluorophenyl)piperidine-2,6-dione]	99.79	1.95	3.78	84.9	4.2	93.2	90.67	< 0.128
CC[C@H]1CN(c2ccc3c(c2)N2C[C@@H]4CC[C@H](COc5c(c(C)nn5C)-c5cc(cc(C)n5)C(=O)/N=C/2N3)C4)CCN1C1CCN(c2cc(F)c([C@H]3CCC(=O)NC3=O)c(F)c2)CC1 [Example 189, (R)-3-(4-(4-((S)-2-ethyl-4-((7^1R,7^3S,E)-1^1,1^3,2^6-trimethyl-3-oxo-5^2,5^3-dihydro-1^1H,5^1H-9-oxa-4-aza-5(2,1)-benzo[d]imidazola-2(2,4)-pyridina-1(4,5)-pyrazola-7(1,3)-cyclopentanacyclononaphane-5^6-yl)piperazin-1-yl)piperidin-1-yl)-2,6-difluorophenyl)piperidine-2,6-dione]	100.03	2.11	2.38	90.2	4.4	87.6	92.5	< 0.128
Cc1cc2cc(n1)-c1c(C)nn(C)c1OC[C@H]1CC[C@H](C1)CN1/C(=N/C2=O)Nc2ccc(N3CCN(C4CCN(c5cc(F)c([C@H]6CCC(=O)NC6=O)c(F)c5)CC4)C[C@H]3C)cc21 [Example 190, (R)-3-(2,6-difluoro-4-(4-((R)-3-methyl-4-((7^1R,7^3S,E)-1^1,1^3,2^6-trimethyl-3-oxo-5^2,5^3-dihydro-1^1H,5^1H-9-oxa-4-aza-5(2,1)-benzo[d]imidazola-2(2,4)-pyridina-1(4,5)-pyrazola-7(1,3)-cyclopentanacyclononaphane-5^6-yl)piperazin-1-yl)piperidin-1-yl)phenyl)piperidine-2,6-dione]	100.67	1.2	1.69	94.9	3.11	88.2	91.5	0.58
Cc1cc2cc(n1)-c1c(C)nn(C)c1OC[C@H]1CC[C@H](C1)CN1/C(=N/C2=O)Nc2ccc(N3C[C@H](C)N(C4CCN(c5cc(F)c([C@H]6CCC(=O)NC6=O)c(F)c5)CC4)C[C@H]3C)cc21 [Example 191, (R)-3-(4-(4-((2S,5R)-2,5-dimethyl-4-((7^1R,7^3S,E)-1^1,1^3,2^6-trimethyl-3-oxo-5^2,5^3-dihydro-1^1H,5^1H-9-oxa-4-aza-5(2,1)-benzo[d]imidazola-2(2,4)-pyridina-1(4,5)-pyrazola-7(1,3)-cyclopentanacyclononaphane-5^6-yl)piperazin-1-yl)piperidin-1-yl)-2,6-difluorophenyl)piperidine-2,6-dione]	99.88	0.769	0.73	88.7	2.94	89.3	90.84	0.528
